Each structure is given as a SMILES string.

The subject of test [1] is picornaviruses (CVB1, HRV-A2, HRV-A23, EV-68). Put plainly: Anti-picornavirus cytopathic effect (CPE) reduction assay on HeLa H1 cells. It is filed as cell-based. To be noted: 48 h, category from averaging EC50 values of four picornaviruses (CVB1, HRV-A2, HRV-A23, EV68), second symbol in parentheses. As for the experimental part: Anti-Picornavirus Assay in Mammalian Cell Culture
The antiviral activity of selected compounds was tested using a cytopathic effect (CPE) reduction assay on HeLa H1 cells (ATCC CRL-1958). Briefly, cells were seeded in 96-well dishes (2×10^4 cells/well) in DMEM medium (Life technologies) supplemented with 10% FBS and PenStrep solution (100 U/mL Penicillin and 100 μg/mL streptomycin) and incubated at 37° C., 5% CO2 overnight. The next day, cells were pre-treated with serial dilutions of the compound in DMEM medium supplemented with 2% FBS and PenStrep for 2 h at 37° C., 5% CO2. Next, cells were infected with virus (CVB1, HRV-A2, HRV-A23, EV-68) at an multiplicity of infection (MOI) which results in a complete virus-induced CPE within 2 days in control wells (infected and vehicle-treated). After 48 h, supernatants were aspirated and 50 μl/well of CellTiterBlue reagent (Promega) diluted 1:5 in DMEM+2% FBS, was added to the cells. Plates were returned to the incubator and allowed to develop for 1.5 h. After that, plates were equilibrated to RT and subsequently, fluorescence was recorded (Excitation wavelength: 560 nm; emission wavelength: 590 nm) using a SpectraMax M5 multimode plate reader. Viability of cells was calculated according to the formula: V=(RFUCpd−RFUVeh/(RFUM−RFUVeh), where RFUCpd refers to infected and compound-treated cells, RFUVeh to infected and vehicle-treated cells and RFUM to uninfected and vehicle treated cells. Half-maximal effective concentrations (EC50) were calculated by non-linear regression analysis using the drc package in R (R Development. Core Team, 2005). EC50 categories as presented in Table 2 were calculated by averaging the EC50 values from four picornaviruses (CVB1, HRV-A2, HRV-A23, EV68).
On the technique in general: Protection from cytopathic effect is a common read-out in antiviral testing.

The target in test [2] is T1, PLA2G16 (Homo sapiens, UniProt P53816).
T1 construct: Hexa-His (N); made in house; host or cells: E. coli BL21(DE3)
T1 sequence (P53816 1-162): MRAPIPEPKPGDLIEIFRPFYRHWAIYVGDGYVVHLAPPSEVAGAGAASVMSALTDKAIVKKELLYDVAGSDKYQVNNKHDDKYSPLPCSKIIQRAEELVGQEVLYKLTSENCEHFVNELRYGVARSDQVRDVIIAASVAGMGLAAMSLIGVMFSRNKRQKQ
The test can be described thus: Enzyme activity assay for PLA2G16 (Red/Green BODIPY PC-A2 fluorescence). Type of test: biochemical. Conditions: His-tagged PLA2G16, 4 min pre-incubation, compound 2 nM to 50 μM; first symbol in parentheses. From the text:
Purification and Enzyme Activity Assay for PLA2G16
A cDNA for PLA2G16 (NM_007069) was custom-synthesized by Genscript (Piscataway, USA) and inserted into a pET-based bacterial expression vector [Moffatt, B. A. and Studier, F. W. (1986) J. Mol. Biol. 189, 113-130; Rosenberg, A. H., Lade, B. N., Chui, D., Lin, S., Dunn, J. J., and Studier, F. W. (1987) Gene 56, 125-135], enabling the expression of N-terminally Hexa-His-tagged PLA2G16. E. coli BL21(DE3) (Agilent) were transformed with pET-His-PLA2G16 according to the manufacturer's instructions and plated on Carbenicillin-containing agar plates (final concentration: 100 μg/mL). A single clone was inoculated in 100 mL LB medium supplemented with 100 μg/mL Carbenicillin and the inoculated culture was grown at 37° C. overnight in a rotary shaker. On the next day, the bacterial culture was diluted in LB medium supplemented with 100 μg/mL Carbenicillin (30 mL overnight culture in 800 mL total culture volume). Bacteria were grown at 37° C. until the OD600 reached 0.6. Gene expression was induced by addition of 1 mM isopropyl-β-D-thiogalactopyranosid (IPTG) for 2 h at 18° C. Subsequently, bacteria were harvested by centrifugation (15 min; 10,000×g; 4° C.) and frozen at −80° C. The bacterial pellet was resuspended in Buffer A (50 mM Tris/HCl pH 7.5, 500 mM NaCl, 5% glycerol, 5 mM β-Mercaptoethanol and 1 mM PMSF) and lysed by addition of 1 mg/mL lysozyme (Sigma Aldrich) and 100 μg/mL DNasel-(Roche). The sample was incubated at 30° C. for 30 min to allow lysis to occur. Then, the lysate was cleared by centrifugation (15,000×g, 15 min, 4° C.) and incubated with 1.5 mL Ni-NTA agarose suspension (Qiagen) for 60 min at 4° C. The Ni-NTA agarose was washed with 10 mL Buffer A. Bound protein was eluted by applying a manual gradient of Buffer A supplemented with increasing concentrations of imidazole (Sigma Aldrich; 25/50/75/100/250 mM). Purified fractions were analyzed by SDS-PAGE followed by Coomassie staining to assess the purity.
Activity of the protein was assessed as follows:
Red/Green BODIPY® PC-A2 (Invitrogen, 1 mM in DMSO) was mixed with equal volumes of 1,2-Dioleoyl-sn-glycero-3-phosphocholine (DOPC; Sigma Aldrich, 10 mM in Ethanol) and 1,2-Dioleoyl-sn-glycero-3-phospho-rac-(1-glycerol) (DOPG; Sigma Aldrich, 10 mM in Ethanol) and 0.5 volumes of Cholesterol (CHOL; Sigma Aldrich, 10 mM in Ethanol) and vortexed for 5 s. The mixture (Red/Green BODIPY® PC-A2/DOPC/DOPG/CHOL) was diluted 1:91.4 in activity assay buffer (50 mM Tris/HCl pH 8.5, 100 mM NaCl) using a small-orifice pipette tip under constant vortexing. In the following, this preparation will be referred to as the “substrate solution”.
In order to evaluate their inhibitory potential, compounds were dissolved at 10 mM concentration in DMSO and directly spotted into assay plates (Corning, Cat. No. 3576) using acoustic liquid transfer (Labcyte Echo 525). Each compound was spotted at increasing concentrations, ranging from 2 nM to 50 μM (concentration in the final assay volume). 50 μl of PLA2G16 enzyme solution (diluted in activity buffer, supplemented with 5 mM L-Glutathione; Sigma Aldrich) was pre-incubated with compounds for 4 min., followed by addition of 50 μl of substrate solution. Fluorescence was recorded immediately after substrate addition for a total time of 10 min. using a SpectraMax M5 multimode reader (Excitation wavelength: 480 nm, emission wavelength: 530 nm). The relative increase of fluorescence over time is referred to as the enzyme activity. Half-maximal inhibitory concentrations (IC50) were derived by non-linear regression analysis using the drc package in R (R Development. Core Team, 2005).

In the case of `O=C(NOC1CCCCC1)C(=O)[C@H]1CNC(=O)[C@@H]1Cc1ccccc1` (racemic) [FP-9, Rac-2-[(3R,4R)-4-benzyl-5-oxopyrrolidin-3-yl]-N-(cyclohexyloxy)-2-oxoacetamide], in test [1], the concentration giving a half-maximal response (EC50) fell in the range of 1000 to 10000 nM. For the same compound, the IC50 in test [2] was below 1000 nM.

As for `O=C(NC1CC1)C(=O)[C@H]1CN(c2ccnc(Cl)n2)C(=O)[C@@H]1Cc1ccccc1` (racemic) [FP-60, Rac-2-[(3R,4R)-4-benzyl-1-(2-chloropyrimidin-4-yl)-5-oxopyrrolidin-3-yl]-N-cyclopropyl-2-oxoacetamide], the EC50 in test [1] lay within 1000 to 10000 nM. In test [2], the IC50 is below 1000 nM.

For `O=C(NC1CC1)C(=O)[C@@H]1CN(c2cncnc2)C(=O)[C@H]1Cc1ccccc1` (single isomer, unassigned) [FP-90], the EC50 in test [1] was in the range of 1000 to 10000 nM. For the same compound, the 50% inhibitory concentration (IC50) in test [2] is below 1000 nM.

As to `O=C(NC1CC1)C(=O)[C@H]1CNC(=O)[C@@H]1c1ccccc1` (racemic) [FP-14, Rac-N-cyclopropyl-2-oxo-2-[(3R,4S)-5-oxo-4-phenylpyrrolidin-3-yl]acetamide], the 50% effective concentration (EC50) in test [1] fell in the range of 1000 to 10000 nM. For the same compound, in test [2], the IC50 is below 1000 nM.

For `O=C(NC1CC1)C(=O)[C@H]1CN(c2cnccn2)C(=O)[C@@H]1Cc1ccccc1` (single isomer, unassigned) [FP-93], in test [1], the EC50 is below 1000 nM. In addition, in test [2], the 50% inhibitory concentration (IC50) was below 1000 nM.

Take `O=C(NC1CC1)C(=O)[C@H]1CN(c2ncccn2)C(=O)[C@@H]1Cc1ccccc1` (racemic) [FP-58, Rac-2-[(3R,4R)-4-benzyl-5-oxo-1-(pyrimidin-2-yl)pyrrolidin-3-yl]-N-cyclopropyl-2-oxoacetamide]: the concentration for a half-maximal effect (EC50) in test [1] fell in the range of 1000 to 10000 nM. Moreover, in test [2], the IC50 is below 1000 nM.

With `CNC(=O)CN1C[C@H](C(=O)C(=O)NCC(C)C)[C@@H](Cc2ccccc2)C1=O` (racemic) [FP-43, Rac-2-[(3R,4R)-4-benzyl-1-[(methylcarbamoyl)methyl]-5-oxopyrrolidin-3-yl]-N-(2-methylpropyl)-2-oxoacetamide], the EC50 in test [1] is 1000 to 10000 nM. The IC50 in test [2] was below 1000 nM.

Regarding `O=C(NC1CCCC1)C(=O)[C@H]1CNC(=O)[C@@H]1c1ccccc1` (racemic) [FP-79, Rac-N-cyclopentyl-2-oxo-2-[(3R,4S)-5-oxo-4-phenylpyrrolidin-3-yl]acetamide], the EC50 in test [1] is below 1000 nM. Moreover, the IC50 in test [2] was below 1000 nM.

As to `CC1(NC(=O)C(=O)[C@H]2CNC(=O)[C@@H]2c2ccccc2)CC1` (racemic) [FP-20, Rac-N-(1-methylcyclopropyl)-2-oxo-2-[(3R,4S)-5-oxo-4-phenylpyrrolidin-3-yl]acetamide], the EC50 in test [1] fell in the range of 1000 to 10000 nM. The IC50 in test [2] was below 1000 nM.

Turning to `O=C(NC1CCOCC1)C(=O)[C@H]1CNC(=O)[C@@H]1Cc1ccccc1` (racemic) [FP-7, Rac-2-[(3R,4R)-4-benzyl-5-oxopyrrolidin-3-yl]-N-(oxan-4-yl)-2-oxoacetamide], the 50% effective concentration (EC50) in test [1] was in the range of 1000 to 10000 nM. Further, the IC50 in test [2] was below 1000 nM.

In the case of `Cn1ncnc1CN1C[C@H](C(=O)C(=O)NC2CC2)[C@@H](Cc2ccc(F)cc2)C1=O` (racemic) [FP-52, Rac-N-cyclopropyl-2-[(3R,4R)-4-[(4-fluorophenyl)methyl]-1-[(1-methyl-1H-1,2,4-triazol-5-yl)methyl]-5-oxopyrrolidin-3-yl]-2-oxoacetamide], the EC50 in test [1] was above 10000 nM. Besides, in test [2], the 50% inhibitory concentration (IC50) was below 1000 nM.

For the compound `CC(F)(F)CNC(=O)C(=O)[C@@H]1CN(c2cncnc2)C(=O)[C@H]1Cc1ccccc1` (single isomer, unassigned) [FP-96], the 50% effective concentration (EC50) in test [1] lay in the range of 1000 to 10000 nM. In addition, in test [2], the IC50 was below 1000 nM.

Take `Cc1noc(CN2C[C@H](C(=O)C(=O)NC3CC3)[C@@H](Cc3ccccc3)C2=O)n1` (racemic) [FP-34, Rac-2-[(3R,4R)-4-benzyl-1-[(3-methyl-1,2,4-oxadiazol-5-yl)methyl]-5-oxopyrrolidin-3-yl]-N-cyclopropyl-2-oxoacetamide]: the EC50 in test [1] was 1000 to 10000 nM. Also, in test [2], the 50% inhibitory concentration (IC50) was below 1000 nM.

Regarding `Cc1cc(CN2C[C@H](C(=O)C(=O)NC(C)C)[C@@H](c3ccccc3)C2=O)no1` (racemic) [FP-101, Rac-2-[(3R,4S)-1-[(5-methyl-1,2-oxazol-3-yl)methyl]-5-oxo-4-phenylpyrrolidin-3-yl]-2-oxo-N-(propan-2-yl)acetamide], the half-maximal effective concentration (EC50) in test [1] is 1000 to 10000 nM. Besides, in test [2], the IC50 was below 1000 nM.

On to `CC(C)CNC(=O)C(=O)[C@@H]1CN(CC(=O)N(C)C)C(=O)[C@H]1Cc1ccccc1` (single isomer, unassigned) [FP-91], for which the concentration giving a half-maximal response (EC50) in test [1] was above 10000 nM. Further, the IC50 in test [2] was in the range of 1000 to 10000 nM.

Consider `CCNC(=O)C(=O)[C@H]1CN(Cc2ncccn2)C(=O)[C@@H]1Cc1ccccc1` (racemic) [FP-36, Rac-2-[(3R,4R)-4-benzyl-5-oxo-1-[(pyrimidin-2-yl)methyl]pyrrolidin-3-yl]-N-ethyl-2-oxoacetamide], for which the EC50 in test [1] was in the range of 1000 to 10000 nM. The IC50 in test [2] is below 1000 nM.

Turning to `CCNC(=O)C(=O)[C@H]1CNC(=O)[C@@H]1c1ccccc1` (racemic) [FP-15, Rac-N-ethyl-2-oxo-2-[(3R,4S)-5-oxo-4-phenylpyrrolidin-3-yl]acetamide], the 50% effective concentration (EC50) in test [1] was 1000 to 10000 nM. Moreover, the IC50 in test [2] was below 1000 nM.

In the case of `O=C(NCC1CC(F)(F)C1)C(=O)[C@H]1CNC(=O)[C@@H]1c1ccccc1` (racemic) [FP-23, Rac-N-[(3,3-difluorocyclobutyl)methyl]-2-oxo-2-[(3R,4S)-5-oxo-4-phenylpyrrolidin-3-yl]acetamide], the EC50 in test [1] was below 1000 nM. Moreover, in test [2], the IC50 was below 1000 nM.

Consider `COCCN1C[C@H](C(=O)C(=O)NC2CC2)[C@@H](Cc2ccccc2)C1=O` (racemic) [FP-39, Rac-2-[(3R,4R)-4-benzyl-1-(2-methoxyethyl)-5-oxopyrrolidin-3-yl]-N-cyclopropyl-2-oxoacetamide], for which, in test [1], the concentration giving a half-maximal response (EC50) was in the range of 1000 to 10000 nM. Moreover, the 50% inhibitory concentration (IC50) in test [2] was below 1000 nM.

One may read the EC50 as the concentration that produces a half-maximal response. The IC50 is the midpoint of a concentration-inhibition curve.

The record behind these values is US11180479B2 (HAPLOGEN GmbH, priority 2017, dated 2021).
